In patent US11285218B2, “Degradation of bromodomain-containing protein 9 (BRD9) by conjugation of BRD9 inhibitors with E3 ligase ligand and methods of use” (Dana-Farber Cancer Institute, Inc., priority 2016, dated 2022):
Entries after “also recorded” stand apart in the source; their conditions may differ.

Columns and labels:
BRD7 [1] = target: BRD7 (Homo sapiens, UniProt Q9NPI1); assay: BRD7 immunoblot in MOLM-13; details: MOLM-13, 4 hour treatment
Target sequence in this assay (Q9NPI1 whole entry): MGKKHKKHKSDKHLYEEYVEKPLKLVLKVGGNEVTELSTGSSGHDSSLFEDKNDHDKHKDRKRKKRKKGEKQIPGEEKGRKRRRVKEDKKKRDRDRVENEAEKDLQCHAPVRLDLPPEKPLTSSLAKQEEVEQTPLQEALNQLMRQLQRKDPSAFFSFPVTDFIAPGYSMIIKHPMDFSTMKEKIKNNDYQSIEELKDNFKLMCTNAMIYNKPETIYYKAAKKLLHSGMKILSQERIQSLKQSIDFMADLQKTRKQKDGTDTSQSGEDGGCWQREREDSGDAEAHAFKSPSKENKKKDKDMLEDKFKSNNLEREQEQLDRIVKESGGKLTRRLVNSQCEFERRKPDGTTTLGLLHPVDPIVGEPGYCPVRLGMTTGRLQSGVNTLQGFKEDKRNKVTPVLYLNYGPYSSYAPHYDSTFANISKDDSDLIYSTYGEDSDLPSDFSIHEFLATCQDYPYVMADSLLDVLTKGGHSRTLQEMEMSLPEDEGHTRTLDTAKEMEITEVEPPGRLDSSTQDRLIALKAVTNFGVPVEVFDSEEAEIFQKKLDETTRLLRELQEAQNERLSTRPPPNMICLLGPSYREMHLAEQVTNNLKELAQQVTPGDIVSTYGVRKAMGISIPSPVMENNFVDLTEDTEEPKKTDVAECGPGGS
Experimental: In additional experiments, cells were washed with PBS, before being lysed in RIPA buffer supplemented with 1×HALT™ protease inhibitor cocktail (Thermo Scientific) for 10 min on ice, followed by low-amplitude sonication for 10 seconds at 4° C. […] In soluble material was removed by centrifugation at 20,000×g for 20 min before protein content was quantified by BCA assay (Pierce). […] Blots were imaged using fluorescence-labeled secondary antibodies (LI-COR) on the OdysseyCLxImager (LI-COR).

BRD2(1) = target: T1, BRD2(1) (Homo sapiens, UniProt P25440); assay: BromoScan single-point screen; assay type: binding; details: percent of protein captured on solid support vs control
T1 construct: utilizing DNA-tagged bromodomain and immobilized ligand attached to solid support
Excerpt: (§1) The BromoScan is an assay that measures the engagement of compounds with bromodomain proteins by utilizing DNA-tagged bromodomain and immobilized ligand attached to solid support. In the control test, DNA-tagged bromodomain binds to the ligand and the bromodomain is captured on the solid support. Compounds that compete for the bromodomain binding location on the ligand will prevent the bromodomain from binding, resulting in less protein captured on the solid support.

BAZ^2B = target: T2, BAZ^2B (Homo sapiens, UniProt Q9UIF8); assay: BromoScan single-point screen; assay type: binding; details: percent of protein captured on solid support vs control
T2 construct: utilizing DNA-tagged bromodomain and immobilized ligand attached to solid support
Excerpt: as §1

BAZ^2A = target: T3, BAZ^2A (Homo sapiens, UniProt Q9UIF9); assay: BromoScan single-point screen; assay type: binding; details: percent of protein captured on solid support vs control
T3 construct: utilizing DNA-tagged bromodomain and immobilized ligand attached to solid support
Excerpt: as §1

TAF1L(2) = target: T4, TAF1L(2) (Homo sapiens, UniProt Q8IZX4); assay: BromoScan single-point screen; assay type: binding; details: percent of protein captured on solid support vs control
T4 construct: utilizing DNA-tagged bromodomain and immobilized ligand attached to solid support
Excerpt: as §1

BRPF3 = target: T5, BRPF3 (Homo sapiens, UniProt Q9ULD4); assay: BromoScan single-point screen; assay type: binding; details: percent of protein captured on solid support vs control
T5 construct: utilizing DNA-tagged bromodomain and immobilized ligand attached to solid support
Excerpt: as §1

EP300 = target: T6, EP300 (Homo sapiens, UniProt Q09472); assay: BromoScan single-point screen; assay type: binding; details: percent of protein captured on solid support vs control
T6 construct: utilizing DNA-tagged bromodomain and immobilized ligand attached to solid support
Excerpt: as §1

SMARCA2 = target: T7, SMARCA2 (Homo sapiens, UniProt P51531); assay: BromoScan single-point screen; assay type: binding; details: percent of protein captured on solid support vs control
T7 construct: utilizing DNA-tagged bromodomain and immobilized ligand attached to solid support
Excerpt: as §1

PBRM1(5) = target: T8, PBRM1(5) (Homo sapiens, UniProt Q86U86); assay: BromoScan single-point screen; assay type: binding; details: percent of protein captured on solid support vs control
T8 construct: utilizing DNA-tagged bromodomain and immobilized ligand attached to solid support
Excerpt: as §1

PCAF = target: T9, PCAF (Homo sapiens, UniProt Q92831); assay: BromoScan single-point screen; assay type: binding; details: percent of protein captured on solid support vs control
T9 construct: utilizing DNA-tagged bromodomain and immobilized ligand attached to solid support
Excerpt: as §1

ATAD2B = target: T10, ATAD2B (Homo sapiens, UniProt Q9ULI0); assay: BromoScan single-point screen; assay type: binding; details: percent of protein captured on solid support vs control
T10 construct: utilizing DNA-tagged bromodomain and immobilized ligand attached to solid support
Excerpt: as §1

WDR9(2) = target: T11, WDR9(2) (Homo sapiens, UniProt Q9NSI6); assay: BromoScan single-point screen; assay type: binding; details: percent of protein captured on solid support vs control
T11 construct: utilizing DNA-tagged bromodomain and immobilized ligand attached to solid support
Excerpt: as §1

BRD1 = target: T12, BRD1 (Homo sapiens, UniProt O95696); assay: BromoScan single-point screen; assay type: binding; details: percent of protein captured on solid support vs control
T12 construct: utilizing DNA-tagged bromodomain and immobilized ligand attached to solid support
Excerpt: as §1

CECR2 = target: T13, CECR2 (Homo sapiens, UniProt Q9BXF3); assay: BromoScan single-point screen; assay type: binding; details: percent of protein captured on solid support vs control
T13 construct: utilizing DNA-tagged bromodomain and immobilized ligand attached to solid support
Excerpt: as §1

BRPF1 = target: T14, BRPF1 (Homo sapiens, UniProt P55201); assay: BromoScan single-point screen; assay type: binding; details: percent of protein captured on solid support vs control
T14 construct: utilizing DNA-tagged bromodomain and immobilized ligand attached to solid support
Excerpt: as §1

TAF1(2) = target: T15, TAF1(2) (Homo sapiens, UniProt P21675); assay: BromoScan single-point screen; assay type: binding; details: percent of protein captured on solid support vs control
T15 construct: utilizing DNA-tagged bromodomain and immobilized ligand attached to solid support
Excerpt: as §1

BRDT(1) = target: T16, BRDT(1) (Homo sapiens, UniProt Q58F21); assay: BromoScan single-point screen; assay type: binding; details: percent of protein captured on solid support vs control
T16 construct: utilizing DNA-tagged bromodomain and immobilized ligand attached to solid support
Excerpt: as §1

TRIM24 (PHD, Bromo.) = target: T17, TRIM24 (PHD, Bromo.) (Homo sapiens, UniProt O15164); assay: BromoScan single-point screen; assay type: binding; details: percent of protein captured on solid support vs control
T17 construct: utilizing DNA-tagged bromodomain and immobilized ligand attached to solid support
Excerpt: as §1

SMARCA4 = target: T18, SMARCA4 (Homo sapiens, UniProt P51532); assay: BromoScan single-point screen; assay type: binding; details: percent of protein captured on solid support vs control
T18 construct: utilizing DNA-tagged bromodomain and immobilized ligand attached to solid support
Excerpt: as §1

PBRM1(2) = target: T19, PBRM1(2) (Homo sapiens, UniProt Q86U86); assay: BromoScan single-point screen; assay type: binding; details: percent of protein captured on solid support vs control
T19 construct: utilizing DNA-tagged bromodomain and immobilized ligand attached to solid support
Excerpt: as §1

BRD7 [2] = target: T20, BRD7 (Homo sapiens, UniProt Q9NPI1); assay: BromoScan single-point screen; assay type: binding; details: percent of protein captured on solid support vs control
T20 construct: utilizing DNA-tagged bromodomain and immobilized ligand attached to solid support
Excerpt: as §1
T20 sequence (Q9NPI1 131-235 limits assumed): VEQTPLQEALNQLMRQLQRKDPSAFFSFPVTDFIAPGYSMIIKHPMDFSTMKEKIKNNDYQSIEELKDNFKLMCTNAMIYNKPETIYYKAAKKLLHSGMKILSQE

BRD3(1) = target: T21, BRD3(1) (Homo sapiens, UniProt Q15059); assay: BromoScan single-point screen; assay type: binding; details: percent of protein captured on solid support vs control
T21 construct: utilizing DNA-tagged bromodomain and immobilized ligand attached to solid support
Excerpt: as §1

BRD2(2) = target: T22, BRD2(2) (Homo sapiens, UniProt P25440); assay: BromoScan single-point screen; assay type: binding; details: percent of protein captured on solid support vs control
T22 construct: utilizing DNA-tagged bromodomain and immobilized ligand attached to solid support
Excerpt: as §1

ATAD2A = target: T23, ATAD2A (Homo sapiens, UniProt Q6PL18); assay: BromoScan single-point screen; assay type: binding; details: percent of protein captured on solid support vs control
T23 construct: utilizing DNA-tagged bromodomain and immobilized ligand attached to solid support
Excerpt: as §1

BRDT(2) = target: T24, BRDT(2) (Homo sapiens, UniProt Q58F21); assay: BromoScan single-point screen; assay type: binding; details: percent of protein captured on solid support vs control
T24 construct: utilizing DNA-tagged bromodomain and immobilized ligand attached to solid support
Excerpt: as §1

BRD3(2) = target: T25, BRD3(2) (Homo sapiens, UniProt Q15059); assay: BromoScan single-point screen; assay type: binding; details: percent of protein captured on solid support vs control
T25 construct: utilizing DNA-tagged bromodomain and immobilized ligand attached to solid support
Excerpt: as §1

CREBBP = target: T26, CREBBP (Homo sapiens, UniProt Q92793); assay: BromoScan single-point screen; assay type: binding; details: percent of protein captured on solid support vs control
T26 construct: utilizing DNA-tagged bromodomain and immobilized ligand attached to solid support
Excerpt: as §1

GCN5L2 = target: T27, GCN5L2 (Homo sapiens, UniProt Q92830); assay: BromoScan single-point screen; assay type: binding; details: percent of protein captured on solid support vs control
T27 construct: utilizing DNA-tagged bromodomain and immobilized ligand attached to solid support
Excerpt: as §1

FALZ = target: T28, FALZ (Homo sapiens, UniProt Q12830); assay: BromoScan single-point screen; assay type: binding; details: percent of protein captured on solid support vs control
T28 construct: utilizing DNA-tagged bromodomain and immobilized ligand attached to solid support
Excerpt: as §1

[3] = system: MM.1S multiple myeloma line; assay: ATPlite viability assay, MM.1S; details: 72 hour treatment, in words
Experimental: 500 cells/well were plated at a volume of 40 μL/well in white tissue culture treated 384 well assay plates (Thermo Scientific) before DMSO compound stock was added from pre-diluted plates by pin transfer using a Janus Workstation (PerkinElmer, USA). […] Assay plates were allowed to equilibrate to RT for 30 min before reconstituted ATPlite 1 Step reagent (Perkin Elmer) was dispensed at 1:1 volume/well by EL406 automated liquid handler (Biotek, USA).

[4] = system: 32 members of the human bromodomain family; assay: BromoScan single-point screen, panel profile; assay type: binding; details: single-point 1 μM, 32 bromodomains; in words
Excerpt: as §1

TRIM33 (PHD, Bromo.) = assay: BromoScan single-point screen; assay type: binding, human; details: percent of protein captured on solid support vs control
Excerpt: as §1

T27 sequence (Q92830 728-832 limits assumed): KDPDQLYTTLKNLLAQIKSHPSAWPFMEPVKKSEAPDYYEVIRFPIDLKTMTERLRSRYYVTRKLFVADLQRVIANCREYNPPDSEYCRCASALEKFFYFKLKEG
T8 sequence (Q86U86 653-763 limits assumed): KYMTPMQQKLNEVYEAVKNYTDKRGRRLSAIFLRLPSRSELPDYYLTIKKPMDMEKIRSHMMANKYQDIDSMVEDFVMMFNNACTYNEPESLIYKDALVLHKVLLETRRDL
T14 sequence (P55201 628-732 limits assumed): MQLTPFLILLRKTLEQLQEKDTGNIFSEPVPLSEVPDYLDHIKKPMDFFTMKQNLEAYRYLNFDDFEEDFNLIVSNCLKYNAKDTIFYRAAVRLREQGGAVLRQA
T3 sequence (Q9UIF9 1793-1897 limits assumed): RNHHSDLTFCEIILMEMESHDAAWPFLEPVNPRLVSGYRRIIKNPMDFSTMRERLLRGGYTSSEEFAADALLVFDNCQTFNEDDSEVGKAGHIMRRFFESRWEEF
T2 sequence (Q9UIF8 2060-2164 limits assumed): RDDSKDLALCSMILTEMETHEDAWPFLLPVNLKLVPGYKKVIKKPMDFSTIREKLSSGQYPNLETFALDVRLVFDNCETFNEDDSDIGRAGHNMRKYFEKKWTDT
T4 sequence (Q8IZX4 1517-1626 limits assumed): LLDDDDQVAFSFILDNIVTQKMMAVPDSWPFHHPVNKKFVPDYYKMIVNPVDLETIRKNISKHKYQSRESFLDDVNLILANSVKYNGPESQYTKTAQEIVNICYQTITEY
T15 sequence (P21675 1519-1628 limits assumed): as the sequence (Q8IZX4 1517-1626 limits assumed) above, with M46V, V51M, I102V, I107L counted along it
T22 sequence (P25440 344-453 limits assumed): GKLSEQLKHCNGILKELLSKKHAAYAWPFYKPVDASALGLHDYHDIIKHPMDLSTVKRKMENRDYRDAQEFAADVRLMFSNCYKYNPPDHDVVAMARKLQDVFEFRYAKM
T12 sequence (O95696 562-666 limits assumed): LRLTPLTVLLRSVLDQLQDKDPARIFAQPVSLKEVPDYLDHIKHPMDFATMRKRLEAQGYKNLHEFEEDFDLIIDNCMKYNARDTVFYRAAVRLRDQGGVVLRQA
T7 sequence (P51531 1378-1506 limits assumed): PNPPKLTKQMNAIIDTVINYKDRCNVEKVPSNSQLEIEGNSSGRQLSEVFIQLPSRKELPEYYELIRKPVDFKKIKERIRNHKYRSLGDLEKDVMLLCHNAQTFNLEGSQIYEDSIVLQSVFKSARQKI
T5 sequence (Q9ULD4 589-693 limits assumed): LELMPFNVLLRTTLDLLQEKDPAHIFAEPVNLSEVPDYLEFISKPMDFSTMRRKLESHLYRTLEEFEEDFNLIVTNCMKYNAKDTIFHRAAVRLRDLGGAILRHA
T19 sequence (Q86U86 177-287 limits assumed): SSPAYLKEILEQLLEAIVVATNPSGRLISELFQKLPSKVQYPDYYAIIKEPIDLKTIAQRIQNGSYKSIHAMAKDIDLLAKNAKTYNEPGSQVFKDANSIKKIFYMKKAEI
T23 sequence (Q6PL18 980-1092 limits assumed): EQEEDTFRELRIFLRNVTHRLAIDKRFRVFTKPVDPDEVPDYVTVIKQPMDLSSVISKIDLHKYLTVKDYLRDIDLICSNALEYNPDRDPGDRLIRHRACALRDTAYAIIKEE
T6 sequence (Q09472 1049-1156 limits assumed): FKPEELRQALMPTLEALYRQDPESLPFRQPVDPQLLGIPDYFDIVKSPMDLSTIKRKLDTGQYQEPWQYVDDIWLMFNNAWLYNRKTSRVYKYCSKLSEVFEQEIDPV
T18 sequence (P51532 1453-1564 limits assumed): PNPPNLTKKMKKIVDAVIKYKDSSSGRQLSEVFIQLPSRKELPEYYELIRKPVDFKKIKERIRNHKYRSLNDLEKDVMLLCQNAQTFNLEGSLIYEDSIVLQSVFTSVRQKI
T10 sequence (Q9ULI0 951-1066 limits assumed): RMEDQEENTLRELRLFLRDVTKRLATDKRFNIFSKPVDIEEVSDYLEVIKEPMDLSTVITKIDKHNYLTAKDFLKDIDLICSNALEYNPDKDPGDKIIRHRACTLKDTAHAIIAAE
T26 sequence (Q92793 1085-1192 limits assumed): as the sequence (Q09472 1049-1156 limits assumed) above, with S47N, I73V, Y93F, S98A counted along it
T11 sequence (Q9NSI6 1313-1418 limits assumed): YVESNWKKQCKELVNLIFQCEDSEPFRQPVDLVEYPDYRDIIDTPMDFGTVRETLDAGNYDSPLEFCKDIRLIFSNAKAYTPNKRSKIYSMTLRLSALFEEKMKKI
T21 sequence (Q15059 34-140 limits assumed): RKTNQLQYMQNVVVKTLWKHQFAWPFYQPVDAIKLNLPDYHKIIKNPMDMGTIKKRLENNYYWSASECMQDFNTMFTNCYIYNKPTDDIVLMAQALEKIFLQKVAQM
T17 sequence (O15164 824-1006 limits assumed): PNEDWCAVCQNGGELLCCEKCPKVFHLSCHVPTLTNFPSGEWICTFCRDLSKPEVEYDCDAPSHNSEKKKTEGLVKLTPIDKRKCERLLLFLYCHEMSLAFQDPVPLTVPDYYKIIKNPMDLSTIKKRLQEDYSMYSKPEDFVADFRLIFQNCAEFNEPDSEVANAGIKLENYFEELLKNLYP
T1 sequence (P25440 74-180 limits assumed): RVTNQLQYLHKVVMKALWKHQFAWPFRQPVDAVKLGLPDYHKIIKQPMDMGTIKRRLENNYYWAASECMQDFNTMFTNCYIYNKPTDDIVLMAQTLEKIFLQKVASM
T25 sequence (Q15059 306-415 limits assumed): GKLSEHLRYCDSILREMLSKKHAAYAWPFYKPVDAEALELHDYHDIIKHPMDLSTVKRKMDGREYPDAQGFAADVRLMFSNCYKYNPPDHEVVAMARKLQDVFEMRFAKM
T9 sequence (Q92831 723-827 limits assumed): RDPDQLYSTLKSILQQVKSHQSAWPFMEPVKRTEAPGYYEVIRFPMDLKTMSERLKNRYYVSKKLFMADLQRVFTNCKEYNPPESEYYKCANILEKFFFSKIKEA
T13 sequence (Q9BXF3 434-538 limits assumed): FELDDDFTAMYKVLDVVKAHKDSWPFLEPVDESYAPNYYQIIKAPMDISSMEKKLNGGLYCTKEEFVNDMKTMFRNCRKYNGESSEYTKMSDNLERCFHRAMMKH

COc1cc(-c2cn(C)c(=O)c3cnccc23)cc(OC)c1CN(C)CC(=O)NCCOCCOCCNc1cccc2c1C(=O)N(C1CCC(=O)NC1=O)C2=O (centres unmarked) [Compound I-25]
BRD7 degradation (immunoblot) (BRD7 [1]): not able to induce degradation of BRD7 at any of the concentrations
% Ctrl @ 1 μM (BRD2(1)): 81 % Ctrl
% Ctrl @ 1 μM (BAZ^2B): 75 % Ctrl
% Ctrl @ 1 μM (BAZ^2A): 62 % Ctrl
% Ctrl @ 1 μM (TAF1L(2)): 80 % Ctrl
% Ctrl @ 1 μM (BRPF3): 86 % Ctrl
% Ctrl @ 1 μM (EP300): 88 % Ctrl
% Ctrl @ 1 μM (SMARCA2): 70 % Ctrl
% Ctrl @ 1 μM (PBRM1(5)): 89 % Ctrl
% Ctrl @ 1 μM (PCAF): 67 % Ctrl
% Ctrl @ 1 μM (ATAD2B): 81 % Ctrl
% Ctrl @ 1 μM (WDR9(2)): 86 % Ctrl
% Ctrl @ 1 μM (BRD1): 75 % Ctrl
% Ctrl @ 1 μM (CECR2): 14 % Ctrl
% Ctrl @ 1 μM (BRPF1): 75 % Ctrl
% Ctrl @ 1 μM (TAF1(2)): 63 % Ctrl
% Ctrl @ 1 μM (BRDT(1)): 90 % Ctrl
% Ctrl @ 1 μM (TRIM24 (PHD, Bromo.)): 98 % Ctrl
% Ctrl @ 1 μM (SMARCA4): 57 % Ctrl
% Ctrl @ 1 μM (PBRM1(2)): 79 % Ctrl
% Ctrl @ 1 μM (BRD7 [2]): 25 % Ctrl
% Ctrl @ 1 μM (BRD3(1)): 87 % Ctrl
% Ctrl @ 1 μM (BRD2(2)): 93 % Ctrl
% Ctrl @ 1 μM (ATAD2A): 94 % Ctrl
% Ctrl @ 1 μM (BRDT(2)): 83 % Ctrl
% Ctrl @ 1 μM (BRD3(2)): 85 % Ctrl
% Ctrl @ 1 μM (CREBBP): 88 % Ctrl
% Ctrl @ 1 μM (GCN5L2): 77 % Ctrl
% Ctrl @ 1 μM (FALZ): 79 % Ctrl
efficacy on viability [3]: comparable efficacy
bromodomain interaction profile [4]: exclusive interaction with BRD9; also recorded: exclusively interacts with BRD9
% Ctrl @ 1 μM (TRIM33 (PHD, Bromo.)): 100 % Ctrl
